Measured values taken from US20060063755A1, “Loxapine analogs and methods of use thereof” (priority 2004, published 2006).
Read-outs that look alike come from different tables or passages of the source.

Legend:
M1 muscarinic receptor [1] = molecular target: T1, M1 muscarinic receptor (Homo sapiens, UniProt P11229); conditions: reference compounds; read-out: Ki of reference compounds, M1 binding assay; cited from earlier work
T1 construct: purchased PerkinElmer, Inc., Wellesley, Mass; host or cells: CHO cells
T1 sequence (P11229 1-460): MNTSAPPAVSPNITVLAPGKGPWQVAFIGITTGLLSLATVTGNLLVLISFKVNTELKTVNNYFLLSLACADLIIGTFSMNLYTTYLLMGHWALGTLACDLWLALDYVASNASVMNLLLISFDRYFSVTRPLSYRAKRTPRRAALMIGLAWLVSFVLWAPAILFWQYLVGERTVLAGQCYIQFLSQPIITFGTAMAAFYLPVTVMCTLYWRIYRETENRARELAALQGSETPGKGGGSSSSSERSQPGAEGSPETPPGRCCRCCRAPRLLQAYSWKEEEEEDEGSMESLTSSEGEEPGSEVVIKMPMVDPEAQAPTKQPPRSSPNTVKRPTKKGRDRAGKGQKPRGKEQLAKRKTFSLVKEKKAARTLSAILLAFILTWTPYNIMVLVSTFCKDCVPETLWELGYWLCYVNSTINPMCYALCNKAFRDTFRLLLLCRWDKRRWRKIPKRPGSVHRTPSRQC

male Wistar rats = test: Sleep-wakefulness monitoring (SCORE-2000, EEG/EMG) after oral dosing at CT-18; assay type: in vivo, rat
Protocol: Food and water were available ad libitum.
Treatments were administered orally as a bolus.
A parallel group study design was employed.
The results of NREM and LUSB parameters were measured for the loxapine derivatives such as Compounds 1, 2, 3, 5, 6, 7, 8, 9, 10, 12, 14, 17, 19, 20, 21, 23, 30, 31, 32, 39, 40, 42, 46, 50, 51, 52, 54, 56, and 58 and other compounds listed in Table 1.

hERG channel = hERG channel (Homo sapiens, UniProt Q12809); test: hERG channel current block, whole cell recording in HEK293 cells; assay type: cell-based; conditions: HEK293 cells expressing hERG
Chain of hERG channel (Q12809 whole entry): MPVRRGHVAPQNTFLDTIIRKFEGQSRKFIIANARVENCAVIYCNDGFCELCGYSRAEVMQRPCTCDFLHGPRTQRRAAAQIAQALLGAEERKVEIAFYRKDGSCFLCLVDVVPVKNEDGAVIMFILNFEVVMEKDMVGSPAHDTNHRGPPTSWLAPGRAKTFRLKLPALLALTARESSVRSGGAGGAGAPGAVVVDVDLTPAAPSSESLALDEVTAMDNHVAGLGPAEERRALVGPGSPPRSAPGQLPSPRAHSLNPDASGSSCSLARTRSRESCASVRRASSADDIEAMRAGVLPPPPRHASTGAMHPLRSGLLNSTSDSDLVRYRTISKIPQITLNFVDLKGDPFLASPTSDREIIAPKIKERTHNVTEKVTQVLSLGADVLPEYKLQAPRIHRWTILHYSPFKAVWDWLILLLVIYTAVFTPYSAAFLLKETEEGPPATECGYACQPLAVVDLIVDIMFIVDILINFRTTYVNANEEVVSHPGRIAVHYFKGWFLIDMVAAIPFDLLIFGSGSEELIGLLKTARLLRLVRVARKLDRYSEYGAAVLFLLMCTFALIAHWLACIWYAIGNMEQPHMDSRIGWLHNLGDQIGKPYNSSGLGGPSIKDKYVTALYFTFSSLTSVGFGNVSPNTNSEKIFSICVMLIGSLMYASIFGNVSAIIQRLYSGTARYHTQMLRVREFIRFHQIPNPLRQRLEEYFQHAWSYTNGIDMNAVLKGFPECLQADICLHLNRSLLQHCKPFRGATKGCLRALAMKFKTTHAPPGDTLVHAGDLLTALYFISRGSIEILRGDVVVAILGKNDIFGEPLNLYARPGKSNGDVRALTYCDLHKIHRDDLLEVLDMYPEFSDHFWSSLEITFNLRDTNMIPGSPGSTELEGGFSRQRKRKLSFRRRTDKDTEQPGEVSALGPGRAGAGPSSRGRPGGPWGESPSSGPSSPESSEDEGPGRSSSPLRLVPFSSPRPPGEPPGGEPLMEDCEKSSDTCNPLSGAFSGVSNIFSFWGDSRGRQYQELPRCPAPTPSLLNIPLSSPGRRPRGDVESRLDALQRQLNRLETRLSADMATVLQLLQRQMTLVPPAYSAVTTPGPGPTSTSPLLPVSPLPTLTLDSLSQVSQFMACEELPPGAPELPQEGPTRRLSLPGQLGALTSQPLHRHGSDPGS
Protocol: Other in vitro selection criteria for loxapine analogs of the invention includes hERG binding.
(Brown and Rampe (2000)).
In one embodiment of the HERG assay, the positive control (i.e., reference compound) is terfenadine (Sigma, St. Louis Mo.), which has been shown, at a concentration of 60 nM, to block HERG current by approximately 75%. Test compounds are delivered in HEPES-buffered physiological saline (HB-PS)+0.1% dimethyl sulfoxide (DMSO).
Clin. Exp. Allergy 29 Suppl 3, 174-181.
If the final DMSO concentration must be greater than 0.3%, to reach a specified test article concentration, a separate vehicle control test with an n>2 was performed at the highest final DMSO concentration.
Each cell acted as its own control. […] One concentration of the positive control article (60 nM terfenadine) was applied to two cells (n≧2).

H1 histamine receptor [2] = molecular target: T2, H1 histamine receptor (Bos taurus, UniProt P30546); test: H1 competitive binding assay, [3H]pyrilamine, bovine cerebellar membranes; conditions: bovine cerebellar membrane
T2 construct: the receptors were obtained from bovine cerebellar membrane tissue; from tissue; host or cells: bovine cerebellar membranes
T2 sequence (P30546 whole entry): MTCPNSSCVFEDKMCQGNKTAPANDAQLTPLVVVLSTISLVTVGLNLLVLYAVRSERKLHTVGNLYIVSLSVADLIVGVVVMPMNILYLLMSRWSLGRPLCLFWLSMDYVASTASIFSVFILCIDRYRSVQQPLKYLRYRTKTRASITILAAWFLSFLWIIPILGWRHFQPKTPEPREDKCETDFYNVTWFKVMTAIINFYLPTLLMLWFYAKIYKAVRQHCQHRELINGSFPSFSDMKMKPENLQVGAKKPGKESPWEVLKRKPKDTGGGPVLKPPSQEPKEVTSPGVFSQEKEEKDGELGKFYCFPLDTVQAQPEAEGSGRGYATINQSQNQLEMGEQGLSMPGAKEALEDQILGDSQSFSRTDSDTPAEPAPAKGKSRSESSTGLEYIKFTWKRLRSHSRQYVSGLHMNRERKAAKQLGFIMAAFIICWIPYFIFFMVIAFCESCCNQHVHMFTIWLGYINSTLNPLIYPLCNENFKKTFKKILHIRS

H1 histamine receptor [3] = molecular target: H1 histamine receptor (Rattus norvegicus, UniProt P31390); test: H1 binding, rat (footnote of Table 8)
Chain of H1 histamine receptor (Rattus norvegicus, UniProt P31390) (P31390 whole entry): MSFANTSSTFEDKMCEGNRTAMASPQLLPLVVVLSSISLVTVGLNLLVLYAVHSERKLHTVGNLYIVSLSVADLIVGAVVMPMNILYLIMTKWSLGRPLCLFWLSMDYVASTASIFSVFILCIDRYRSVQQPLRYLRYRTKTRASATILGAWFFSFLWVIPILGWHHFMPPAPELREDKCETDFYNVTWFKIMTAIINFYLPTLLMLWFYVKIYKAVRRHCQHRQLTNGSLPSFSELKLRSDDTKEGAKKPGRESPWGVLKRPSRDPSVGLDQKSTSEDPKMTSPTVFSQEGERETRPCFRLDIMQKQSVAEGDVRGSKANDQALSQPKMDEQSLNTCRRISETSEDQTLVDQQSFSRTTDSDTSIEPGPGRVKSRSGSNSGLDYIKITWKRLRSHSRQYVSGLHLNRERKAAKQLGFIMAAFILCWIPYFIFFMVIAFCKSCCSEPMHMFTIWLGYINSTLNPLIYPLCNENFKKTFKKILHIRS
Protocol: (§1) Binding assays were performed using the disclosed sleep-inducing agents and derivatives selected from those listed in Table 1 in competitive binding assays with known standards for the H1 histamine receptor, and the M1, M2, and M3 muscarinic receptors, alpha 1 and alpha 2 receptors, and D1 and D2 receptors.

H1 histamine receptor [4] = molecular target: H1 histamine receptor (Homo sapiens, UniProt P35367); test: H1 binding, human (footnote of Table 8)
Chain of H1 histamine receptor (Homo sapiens, UniProt P35367) (P35367 whole entry): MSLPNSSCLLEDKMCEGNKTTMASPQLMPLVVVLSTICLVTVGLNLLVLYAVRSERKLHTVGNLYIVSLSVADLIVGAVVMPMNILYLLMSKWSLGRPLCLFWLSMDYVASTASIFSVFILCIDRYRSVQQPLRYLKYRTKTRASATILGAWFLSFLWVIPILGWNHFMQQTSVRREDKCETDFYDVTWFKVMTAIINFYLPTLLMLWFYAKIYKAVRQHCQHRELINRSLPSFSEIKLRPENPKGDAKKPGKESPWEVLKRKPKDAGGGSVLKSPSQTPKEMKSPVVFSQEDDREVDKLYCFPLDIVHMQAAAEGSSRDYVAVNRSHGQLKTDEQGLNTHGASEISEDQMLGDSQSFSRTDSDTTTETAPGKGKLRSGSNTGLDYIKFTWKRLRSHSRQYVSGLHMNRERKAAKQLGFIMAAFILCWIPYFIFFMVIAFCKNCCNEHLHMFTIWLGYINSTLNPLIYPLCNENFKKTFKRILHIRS
Protocol: as §1

M1 muscarinic receptor [5] = molecular target: T1, M1 muscarinic receptor; test: M1 binding assay, [3H]-scopolamine N-methyl chloride, CHO cells; conditions: human recombinant
M2 muscarinic receptor = molecular target: T3, M2 muscarinic receptor (Homo sapiens, UniProt P08172); test: M2 binding assay, [3H]-scopolamine N-methyl chloride, CHO cells; conditions: human recombinant
T3 construct: purchased PerkinElmer, Inc., Wellesley, Mass; host or cells: CHO cells
T3 sequence (P08172 1-466): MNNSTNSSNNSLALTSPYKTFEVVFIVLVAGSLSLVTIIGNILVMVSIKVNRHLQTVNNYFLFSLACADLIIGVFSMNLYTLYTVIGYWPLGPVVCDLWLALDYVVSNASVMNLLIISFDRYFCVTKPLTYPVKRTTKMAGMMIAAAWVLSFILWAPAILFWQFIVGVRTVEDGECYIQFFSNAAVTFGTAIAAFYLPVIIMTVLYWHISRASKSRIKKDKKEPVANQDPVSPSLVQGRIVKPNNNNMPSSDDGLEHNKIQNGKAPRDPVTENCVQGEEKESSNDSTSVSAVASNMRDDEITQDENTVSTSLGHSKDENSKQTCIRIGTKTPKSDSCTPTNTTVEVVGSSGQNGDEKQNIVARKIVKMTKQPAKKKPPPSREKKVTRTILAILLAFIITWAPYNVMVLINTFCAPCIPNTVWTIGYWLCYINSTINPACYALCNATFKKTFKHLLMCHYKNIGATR

M3 muscarinic receptor = molecular target: T4, M3 muscarinic receptor (Homo sapiens, UniProt P20309); test: M3 binding assay, [3H]-scopolamine N-methyl chloride, CHO cells; conditions: human recombinant
T4 construct: purchased PerkinElmer, Inc., Wellesley, Mass; host or cells: CHO cells
T4 sequence (P20309 whole entry): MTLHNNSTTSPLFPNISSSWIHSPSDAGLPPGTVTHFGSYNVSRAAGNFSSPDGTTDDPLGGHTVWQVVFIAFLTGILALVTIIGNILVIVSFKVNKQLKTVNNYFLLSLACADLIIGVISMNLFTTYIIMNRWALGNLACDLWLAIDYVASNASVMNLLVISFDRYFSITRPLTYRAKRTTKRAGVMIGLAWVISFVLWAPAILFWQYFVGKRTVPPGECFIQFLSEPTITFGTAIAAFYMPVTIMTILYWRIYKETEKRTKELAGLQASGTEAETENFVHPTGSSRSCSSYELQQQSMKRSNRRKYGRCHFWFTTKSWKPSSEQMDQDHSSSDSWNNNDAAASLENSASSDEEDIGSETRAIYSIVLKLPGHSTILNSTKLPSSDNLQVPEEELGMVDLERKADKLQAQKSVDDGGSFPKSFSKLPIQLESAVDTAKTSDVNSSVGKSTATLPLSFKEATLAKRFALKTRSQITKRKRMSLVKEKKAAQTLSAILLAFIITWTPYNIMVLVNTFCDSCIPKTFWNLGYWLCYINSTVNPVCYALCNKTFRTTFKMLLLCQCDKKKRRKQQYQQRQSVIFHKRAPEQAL

alpha 1 receptors = test: Alpha 1 receptor binding assay; conditions: read-out: Ki Alpha1
Protocol: as §1

alpha 2 receptors = test: Alpha 2 receptor binding assay; conditions: read-out: Ki Alpha2
Protocol: as §1

Dopamine, D1 [6] = molecular target: Dopamine, D1 (Homo sapiens, UniProt P21728); test: Dopamine D1 (human recombinant) binding assay
Chain of Dopamine, D1 (Homo sapiens, UniProt P21728) (P21728 whole entry): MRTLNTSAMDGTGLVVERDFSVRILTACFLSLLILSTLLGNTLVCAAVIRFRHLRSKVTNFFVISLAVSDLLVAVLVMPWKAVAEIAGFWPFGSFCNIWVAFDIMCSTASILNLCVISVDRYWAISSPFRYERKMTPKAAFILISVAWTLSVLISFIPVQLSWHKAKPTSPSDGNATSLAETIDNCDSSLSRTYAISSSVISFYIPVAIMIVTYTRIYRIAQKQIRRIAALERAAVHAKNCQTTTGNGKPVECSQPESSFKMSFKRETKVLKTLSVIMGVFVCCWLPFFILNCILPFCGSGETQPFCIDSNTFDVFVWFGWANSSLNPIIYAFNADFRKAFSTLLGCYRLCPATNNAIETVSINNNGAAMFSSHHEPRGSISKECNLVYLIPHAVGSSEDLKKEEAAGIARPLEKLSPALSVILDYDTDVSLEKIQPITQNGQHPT
Protocol: as §1
Dopamine, D1 (human recombinant) binding assay was performed according to published procedures. See, e.g., Jarvie, et al. J. Recept Res., 13(1-4): 573-90 (1993); and Billard, et al. Life Sciences, 35(18): 1885-93 (1984), with modifications

Dopamine, D1 [7] = molecular target: Dopamine, D1 (Rattus norvegicus, UniProt P18901); test: Dopamine D1 binding, rat
Chain of Dopamine, D1 (Rattus norvegicus, UniProt P18901) (P18901 whole entry): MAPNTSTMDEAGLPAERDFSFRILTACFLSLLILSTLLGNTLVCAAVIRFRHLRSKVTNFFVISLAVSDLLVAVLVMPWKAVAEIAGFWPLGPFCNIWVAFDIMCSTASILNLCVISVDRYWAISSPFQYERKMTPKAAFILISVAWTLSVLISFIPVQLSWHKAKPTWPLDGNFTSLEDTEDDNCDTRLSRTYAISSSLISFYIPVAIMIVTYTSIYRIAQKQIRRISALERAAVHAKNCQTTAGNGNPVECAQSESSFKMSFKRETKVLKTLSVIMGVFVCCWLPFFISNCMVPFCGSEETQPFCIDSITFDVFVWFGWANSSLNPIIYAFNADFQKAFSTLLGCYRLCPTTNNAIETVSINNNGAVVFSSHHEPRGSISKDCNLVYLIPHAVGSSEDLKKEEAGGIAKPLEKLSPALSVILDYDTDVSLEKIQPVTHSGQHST
Protocol: as §1

D2 receptors [8] = molecular target: D2 receptors (Homo sapiens, UniProt P14416); test: Dopamine D2 binding assay (human)
Chain of D2 receptors (Homo sapiens, UniProt P14416) (P14416 whole entry): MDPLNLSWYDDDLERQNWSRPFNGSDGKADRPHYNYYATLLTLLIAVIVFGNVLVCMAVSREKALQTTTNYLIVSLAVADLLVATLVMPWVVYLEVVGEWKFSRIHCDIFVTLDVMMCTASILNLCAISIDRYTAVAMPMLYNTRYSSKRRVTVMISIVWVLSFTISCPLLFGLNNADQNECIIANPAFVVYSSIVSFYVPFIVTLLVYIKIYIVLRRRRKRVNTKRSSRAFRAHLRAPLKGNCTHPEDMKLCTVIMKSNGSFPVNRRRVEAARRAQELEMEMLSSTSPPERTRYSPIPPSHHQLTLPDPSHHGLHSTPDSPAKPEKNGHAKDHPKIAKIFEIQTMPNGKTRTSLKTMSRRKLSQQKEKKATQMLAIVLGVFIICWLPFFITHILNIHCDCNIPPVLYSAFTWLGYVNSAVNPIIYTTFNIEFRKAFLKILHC
Protocol: as §1, with “receptors. […]” for “receptors.”

D2 receptors [9] = molecular target: D2 receptors (Rattus norvegicus, UniProt P61169); test: Dopamine D2 binding, rat
Chain of D2 receptors (Rattus norvegicus, UniProt P61169) (P61169 whole entry): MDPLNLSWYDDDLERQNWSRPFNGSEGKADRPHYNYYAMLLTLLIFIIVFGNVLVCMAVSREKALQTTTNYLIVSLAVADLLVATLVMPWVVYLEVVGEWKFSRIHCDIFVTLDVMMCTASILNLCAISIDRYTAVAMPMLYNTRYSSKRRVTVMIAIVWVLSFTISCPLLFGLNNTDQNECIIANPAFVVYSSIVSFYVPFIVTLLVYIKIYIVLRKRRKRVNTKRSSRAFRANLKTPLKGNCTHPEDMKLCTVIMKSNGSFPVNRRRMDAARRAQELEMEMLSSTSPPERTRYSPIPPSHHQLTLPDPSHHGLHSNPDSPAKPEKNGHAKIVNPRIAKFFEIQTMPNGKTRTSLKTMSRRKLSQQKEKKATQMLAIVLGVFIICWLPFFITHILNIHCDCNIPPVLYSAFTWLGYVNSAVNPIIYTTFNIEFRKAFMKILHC
Protocol: as §1

Compound | Ki (M1 muscarinic receptor [1]) [µM] | NREM (male Wistar rats; dose 3 mg/kg) [min] | hERG at 10 micromolar (% blocking of the hERG channel) (hERG channel) [%] | Ki (H1 histamine receptor [2]) [µM] | Ki (H1 histamine receptor [3]) [µM] | Ki (H1 histamine receptor [4]) [µM] | Ki (M1 muscarinic receptor [5]) [µM] | Ki (M2 muscarinic receptor) [µM] | Ki (M3 muscarinic receptor) [µM] | Ki (alpha 1 receptors) [µM] | Ki (alpha 2 receptors) [µM] | Ki (Dopamine, D1 [6]) [µM] | Ki (Dopamine, D1 [7]) [µM] | Ki (D2 receptors [8]) [µM] | Ki (D2 receptors [9]) [µM] | NREM (male Wistar rats; dose 30 mg/kg) [min]
C[N+]1(C)CCC(OC(=O)C(c2ccccc2)c2ccccc2)CC1 [4-DAMP methiodide] | 0.00027 | – | – | – | – | – | – | – | – | – | – | – | – | – | – | –
CC(C)(CN1CCN(C2=Nc3ccccc3Oc3ccccc32)CC1)C(=O)O [Compound 1] | – | 39 ± 6 | 6.2 | 0.0403 | 0.0115 | 0.0237 | > 10 | > 10 | > 10 | > 10 | > 10 | > 10 | > 10 | > 10 | > 10 | –
CC(C)(CN1CCN(C2=Nc3ccccc3Oc3ccccc32)CC1)C(=O)NS(C)(=O)=O [Compound 40] | – | – | 5.6 | 0.0228 | 0.0588 | 0.0317 | > 10 | > 10 | > 10 | > 10 | > 10 | > 10 | > 10 | 1.87 | > 10 | 43 ± 4
